From patent US20050288230A1, “Non-steroidal anti-androgen therapy” (AstraZeneca AB, priority 2002, published 2005)

Key:
patients [1] = assay: Randomized open-label study: change in BMD by DEXA, bicalutamide 150 mg daily vs medical castration; type: in vivo, human; details: for lumbar spine BMD increase compared to pre-treatment baseline: 150 mg
Protocol: Inclusion criteria for a prospective, multicentre, randomized, open-label, parallel-group study, included: disease stage T1-T4, Nx, and M0 for which immediate hormonal ablation was indicated; and Eastern Cooperative Oncology Group (ECOG) performance status 0 or 1.
Patients were randomized in a 1:1 ratio to receive either bicalutamide 150 mg daily or medical castration with a luteinizing hormone-releasing hormone (LHRH) agonist for 2 years.
Primary efficacy endpoints were percentage change from baseline in BMD measures (lumbar spine and hip) at 96 weeks.
An analysis of covariance (ANCOVA) model was used to analyse the primary efficacy endpoints. Analysis was performed for patients for whom data were available at baseline and at Week 96. Subsidiary analyses were performed, carrying forward the last patient assessment at time points where data were missing. A p value of ≦0.017 was considered statistically significant.
Secondary endpoints included: percentage change in lumbar spine-BMD and hip-BMD from baseline to 24, 48 and 72 weeks.
Secondary efficacy endpoints were also analyzed using an ANCOVA model. BMD were assessed via dual energy X-ray absorptiometry (DEXA).
103 patients were recruited to the study and randomized 1:1 to receive either bicalutamide (R/S racemate) 150 mg (n=51) or medical castration (n=52). • The treatment groups were well balanced at baseline (Table 1). • The median testosterone level at baseline was 414.7 ng/dL in the bicalutamide 150 mg group (n=48) and 477.9 ng/dL in the medical castration group (n=52). • Median baseline values for albumin, total calcium, 25-hydroxy vitamin D, and thyroid-stimulating hormone were similar in the two treatment groups. Bone Mineral Density

humans = details: single agent therapy, blood; cited from earlier work
patients [2] = details: Casodex 150 monotherapy, preliminary data; cited from earlier work
adult men = details: cited from earlier work

Row | SMILES | lumbar spine BMD increase compared to pre-treatment baseline (patients [1]; 24 weeks) [%] | lumbar spine BMD increase compared to pre-treatment baseline (patients [1]; 48 weeks) [%] | lumbar spine BMD increase compared to pre-treatment baseline (patients [1]; 72 weeks) [%] | BMD compared to baseline (in words) (patients [1]; in vivo) | basal level of total testosterone (humans) | bone mineral density (in words) (patients [2]) | testosterone and LH (in words) (adult men)
1 | CC(O)(CS(=O)(=O)c1ccc(F)cc1)C(=O)Nc1ccc(C#N)c(C(F)(F)F)c1 (stereo not drawn) [Bicalutamide, 4′-cyano-α′,α′,α′-trifluoro-3-(4-fluorophenylsulphonyl)-2-hydroxy-2-methylpropiono-m-toluidide] | 1.05 | 1.76 | 2.22 | statistically significant increase in BMD compared to baseline | approximate doubling | maintains bone mineral density | 
2 | CC/C(=C(\c1ccccc1)c1ccc(OCCN(C)C)cc1)c1ccccc1 [tamoxifen] |  |  |  |  |  |  | increase testosterone and LH
